# Earlier results, collected in patent US20190077874A1, “METHODS AND COMPOSITIONS FOR THE TREATMENT OF TUBEROUS SCLEROSIS” (National Tuberous Sclerosis Association, Inc., priority 2017, published 2019).
# What was measured:
# [1] = test system: IL-1β; conditions: TSC mouse model
# [2] = test system: CXCL10; conditions: TSC mouse model
# [3] = test system: TSC mouse model; conditions: Zhang et al.
# [4] = most commonly hypertension, immune suppression and infection, electrolyte imbalance etc.
# [5] = test system: TSC patients; conditions: previous antiepileptic drugs
# [6] = test system: refractory partial-onset seizures; conditions: patients with refractory partial-onset seizures
# [7] = test system: infantile spasms in the setting of TSC
# [8] = test system: TSC patients with medically refractory epilepsy and SEGAs; conditions: case studies of TSC patients
compound,measurement,setting,value
epicatechin-3-gallate,increased production of IL-1β,[1],reverse the increased production
same,increased production of CXCL10,[2],reverse the increased production
same,seizures,[3],reduced seizures
same,survival,[3],improved survival
"adrenocorticotropic hormone (SYSMEHFRWGKPVGKKRRPVKVYPNGAEDESAEAFPLEF; Corticotropin; UniProt P01189 138-176, looked up) [ACTH, mainstay therapy for the treatment of seizures in TSC patients]",treated patients with adverse effects,[4],up to 85%
CC1(C)O[C@@H]2[C@@H](CO[C@@]3(COS(N)(=O)=O)OC(C)(C)O[C@@H]23)O1 [topiramate],patients in whom the antiepileptic drug failed,[5],58%
CC[C@@H](C(N)=O)N1CCCC1=O [levetiracetam],patients in whom the antiepileptic drug failed,[5],67%
"C=CC(N)CCC(=O)O (stereo not drawn) [VGB, vigabatrin]",patients in whom treatment is ineffectual,[6],more than 75%
same,patients in whom the antiepileptic drug failed,[5],66%
same,efficacy in treating infantile spasms,[7],particularly effective
CO[C@H]1C[C@@H]2CC[C@@H](C)[C@@](O)(O2)C(=O)C(=O)N2CCCC[C@H]2C(=O)O[C@H]([C@H](C)C[C@@H]2CC[C@@H](OCCO)[C@H](OC)C2)CC(=O)[C@H](C)/C=C(\C)[C@@H](O)[C@@H](OC)C(=O)[C@H](C)C[C@H](C)/C=C/C=C/C=C/1C [everolimus],SEGA size,[8],dramatic reduction
same,seizure frequency,[8],dramatic reduction
